We go through one compound from US7998924B2, “Compounds that bind to p185 and methods of using the same” (The Trustees of The University of Pennsylvania, priority 2001, dated 2011).

Data set [1] has as its system T6-17 cells. On the procedure: (See reference 46 below.) HER2-expressing transformed tumor cells (T6-17) were used for this purpose. […] Each value represents an average of at least four samples.
The MTT assay has been used for measuring cell growth as previously described in ref 446. Briefly, T6-17 cells were seeded in 96-well plates overnight in DMEM containing 10% FBS (1000 per well). T6-17 is derived from NIH3T3 by overexpressing the human HER2 receptor. Cells were cultured in 100 μL of fresh medium containing 1 μg/mL of peptides for 48 h. […] A total of 25 μL of MTT solution (5 mg/mL in PBS) was added to each well, and after 2 h of incubation at 37° C., 100 μA of the extraction buffer (20% w/v of SDS, 50% N,N-dimethyl formamide, pH 4.7) were added. After an overnight incubation at 37° C., the optical density at 600 rim was measured using an ELISA reader.

Data set [2] concerns the target T1, HER2 receptor (Homo sapiens, UniProt P04626).
T1 construct: Recombinant purified HER2 receptor composed of the ectodomain of HER2 fused to the Fc of human IgG; purchased Xcyte Therapeutics, Seattle, Wash; (provided by Dr. Che Law; a gift, not a catalogue product)
Nature of the data set: Biacore (surface plasmon resonance) binding of peptides to immobilized HER2. An excerpt: Binding of AHNP has been studies by means of surface plasmon resonance (Biacore) technology. In Biacore experiments, one of the interacting molecules (termed the ligand) is immobilized on the sensor surface, and the other interactant (termed the analyte) is continuously flown over that surface in a micro-flow cell. The interaction between the ligand and the analyte are monitored using a light source that is reflected at the immobilized chip. Binding of the analyte to the immobilized ligand changes the resonance angle of the reflected light due to changes in the refractive index of the surface. The response is plotted in real time in the form of sensorgram curves. The advantage with this approach is its sensitivity, ease of use, and ability to perform experiments with few microgram quantities of proteins and peptides. In addition, the kinetic binding studies reveal association and disassociation rates of the analyte which may be more relevant for understanding the pharmacokinetics of drug-receptor interactions.
Binding experiments were performed with the surface plasmon resonance based biosensor instrument Biacore 3000 (Biacore AB, Uppsala, Sweden) at 25° C. Recombinant purified HER2 receptor composed of the ectodomain of HER2 fused to the Fc of human IgG was provided by Dr. Che Law, Xcyte Therapeutics, Seattle, Wash. Immobilization of HER2 in the sensor surface was performed following the standard amine coupling procedure according to manufacturer's instructions. Briefly, 35 pit of a solution containing 0.2M N-ethyl-N-(dimethylaminopropyl) carbodiimide (EDC) and 0.05 M N-hydroxysuccinimide (NHS) were injected at a flow rate of 5 μL/min to activate carboxyl groups on the sensor chip surface. HER2 (40 ng/mL in 10 mM NaOAc buffer, pH 5.0) was flowed over the chip surface at a flow rate of 20 μL/min until the desired level bound protein was reached. Unreacted protein was washed out and unreacted activated groups were blocked by the injection of 35 μL of 1 M ethanolamine at 5 μL/min. […] A reference surface was generated simultaneously under the same conditions but without HER2 injection and used as a blank to correct for instrument and buffer artifacts. Peptides were injected at variable concentrations at 20 μL/min flow rate and binding to the HER2 receptor immobilized on the chip was monitored in real time. Each sensorgram consists of an association phase (first 240 s), reflecting binding of the injected peptide to the receptor, followed by a dissociation phase (300 s), during which the running buffer is passed over the chip and the bound peptide is being washed off the receptor surface.
Background: Surface plasmon resonance follows binding to a sensor surface in real time, without labels.

Data set [3] in a line: Peptide solubility in PBS buffer at 1 mg/mL. The data set is classed as physicochemical. The following applies: pH 7.4, 1 mg/mL. On the procedure: These peptides could be readily dissolved in the PBS buffer, pH 7.4, at 1 mg/mL concentration without adjustment of pH.
For data set [4], the target named is T1, HER2 receptor. Nature of the data set: Biacore competition: AHNP preinjection inhibits rhumAb 4D5 binding to immobilized HER2. The method, then:
It was shown earlier that the AHNP peptide can mimic some functions of the anti-HER2/neu antibody, rhumAb 4135 in vitro and in vivo (see reference 40 below). […] To that end, injections of AHNP at variable concentrations (from 0 to 90 μM) were followed by injections of rhumAb 4135 at a constant 1 nM concentration, using the “Coinject” mode of the Biacore instrument.
Binding experiments were performed with the surface plasmon resonance based biosensor instrument Biacore 3000 (Biacore AB, Uppsala, Sweden) at 25° C. Recombinant purified HER2 receptor composed of the ectodomain of HER2 fused to the Fc of human IgG was provided by Dr. Che Law, Xcyte Therapeutics, Seattle, Wash. Immobilization of HER2 in the sensor surface was performed following the standard amine coupling procedure according to manufacturer's instructions. Briefly, 35 pit of a solution containing 0.2M N-ethyl-N-(dimethylaminopropyl) carbodiimide (EDC) and 0.05 M N-hydroxysuccinimide (NHS) were injected at a flow rate of 5 μL/min to activate carboxyl groups on the sensor chip surface. HER2 (40 ng/mL in 10 mM NaOAc buffer, pH 5.0) was flowed over the chip surface at a flow rate of 20 μL/min until the desired level bound protein was reached. […] Peptides were injected at variable concentrations at 20 μL/min flow rate and binding to the HER2 receptor immobilized on the chip was monitored in real time. […]

pIC50, pKd: −log10 of the molar value. Read-outs that look alike come from different tables or passages of the source. Some results are limits rather than exact numbers.

One may read the koff as the rate constant with which the complex falls apart. The term kon denotes the second-order rate constant of association. As usually defined, the pKd is the Kd on a negative log10 scale, so that one unit is a factor of ten. As a reminder, the solubility is the concentration that dissolves in the medium under given conditions. What is called pIC50 is the IC50 on a negative log10 scale, so that one unit is a factor of ten. Higher therefore signals a small IC50.

T1 sequence (P04626 23-652 limits assumed): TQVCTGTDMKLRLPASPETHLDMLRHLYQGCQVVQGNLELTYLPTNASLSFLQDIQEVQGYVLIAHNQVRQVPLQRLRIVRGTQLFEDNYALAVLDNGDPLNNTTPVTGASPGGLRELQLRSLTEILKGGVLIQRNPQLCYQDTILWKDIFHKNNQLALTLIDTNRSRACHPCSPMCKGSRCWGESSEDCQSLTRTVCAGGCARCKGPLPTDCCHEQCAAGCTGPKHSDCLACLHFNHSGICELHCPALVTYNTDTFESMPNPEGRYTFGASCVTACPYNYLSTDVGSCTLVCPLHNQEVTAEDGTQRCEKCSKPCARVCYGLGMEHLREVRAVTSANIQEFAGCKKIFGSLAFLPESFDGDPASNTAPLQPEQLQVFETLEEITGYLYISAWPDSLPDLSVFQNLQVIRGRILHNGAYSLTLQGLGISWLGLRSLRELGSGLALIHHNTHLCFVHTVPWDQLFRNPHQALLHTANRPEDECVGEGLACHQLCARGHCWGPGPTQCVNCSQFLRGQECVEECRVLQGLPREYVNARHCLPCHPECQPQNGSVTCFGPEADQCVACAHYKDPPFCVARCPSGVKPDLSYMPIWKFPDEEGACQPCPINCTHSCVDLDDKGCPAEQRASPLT

On to `CSCC[C@H](NC(=O)[C@H](Cc1ccc(O)cc1)NC(=O)[C@@H]1CSSC[C@H](NC(=O)[C@@H](N)Cc2ccccc2)C(=O)N[C@@H](CC(=O)O)C(=O)NCC(=O)N[C@@H](Cc2ccccc2)C(=O)N[C@@H](Cc2ccc(O)cc2)C(=O)N[C@@H](C)C(=O)N1)C(=O)N[C@@H](CC(=O)O)C(=O)N[C@H](C(N)=O)C(C)C` [Peptide 1], for which the “% inhibition of T6-17 cell proliferation in MTT assays” value in data set [1] (1 μg/mL of peptides for 48 h) amounted to 35.5%. For the same compound, the “inhibition of growth of T6-17 cells (in words)” value in data set [1] (0.01 to 10 μg/mL) is reported as “dose-dependently”. The koff in data set [2] and in data set [2] (read-out: binding to HER2 koff) was 0.000453 s⁻¹ throughout. Moreover, the on-rate constant (kon) in data set [2] and in data set [2] (read-out: binding to HER2 kon) was 1410 M⁻¹ s⁻¹ throughout. In addition, in data set [2] (Biacore), the “receptor-binding affinity (in words)” value is listed as “submicromolar”. Further, the pKd in data set [2] (Biacore, immobilized HER2, 25° C., read-out: binding to HER2 KD) was 6.49. Further, the solubility in data set [3] is below 1000 µg/mL. In addition, the negative-log IC50 (pIC50) in data set [4] is 5.47.
